Laboratory results from patent US10532995B2, “Substituted pyrazole compounds as serine protease inhibitors” (VERSEON CORPORATION, priority 2015, dated 2020).

Molecular target: T1, Human thrombin (Homo sapiens, UniProt P00734)
T1 construct: purchased Haematologic Technologies Inc
Experiment: Thrombin protease activity inhibition, chromogenic substrate S-2238
Format: biochemical
Settings: 3 nM thrombin, 125 μM S-2238, 10 min pre-incubation, RT
Method in brief: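 Ten-point, three-fold serial dilutions of compound tested against 3 nM enzyme at RT in Tris buffer (0.05 M, pH 7.4) with 0.015 M NaCl and 0.01% PEG-8000.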

SMILES | IC50 [nM]
COc1ccccc1C(=O)n1nc(C2CCCN2C(=O)OC(C)(C)C)cc1NCc1ccc(Cl)s1 (stereo not shown) [Entry 273, tert-butyl 2-(5-[(5-chlorothiophen-2-yl)methyl]amino-1-(2-methoxybenzoyl)-1H-pyrazol-3-yl)pyrrolidine-1-carboxylate] | 1000 to 10000
CC(C)(C)OC(=O)N1CCCC1(C)c1cc(NCc2ccc(Cl)s2)n(C(=O)C2(C)CCOCC2)n1 (stereo not shown) [Entry 275, tert-butyl 2-(5-[(5-chlorothiophen-2-yl)methyl]amino-1-(4-methyloxane-4-carbonyl)-1H-pyrazol-3-yl)-2-methylpyrrolidine-1-carboxylate] | 1000 to 10000
CC(C)(C)OC(=O)N1CCCC1(C)c1cc(NCc2ccc(Cl)s2)n(C(=O)c2ccsc2)n1 (stereo not shown) [Entry 276, tert-butyl 2-(5-[(5-chlorothiophen-2-yl)methyl]amino-1-(thiophene-3-carbonyl)-1H-pyrazol-3-yl)-2-methylpyrrolidine-1-carboxylate] | > 100000
CC(C)(C)OC(=O)N1CCCC1c1cc(NCc2ccc(Cl)s2)[nH]n1 (stereo not shown) [Entry 277, tert-butyl 2-(5-[(5-chlorothiophen-2-yl)methyl]amino-1H-pyrazol-3-yl)pyrrolidine-1-carboxylate] | > 100000
CC(C)(C)OC(=O)N1CCCC(c2cc(NCc3ccc(Cl)s3)n(C(=O)C(C)(C)C)n2)C1 (stereo not shown) [Entry 279, tert-butyl 3-(5-[(5-chlorothiophen-2-yl)methyl]amino-1-(2,2-dimethylpropanoyl)-1H-pyrazol-3-yl)piperidine-1-carboxylate] | < 100
COc1ccccc1C(=O)n1nc(C2(C)CCCN(C(=O)OC(C)(C)C)C2)cc1NCc1ccc(Cl)s1 (stereo not shown) [Entry 280, tert-butyl 3-(5-[(5-chlorothiophen-2-yl)methyl]amino-1-(2-methoxybenzoyl)-1H-pyrazol-3-yl)-3-methylpiperidine-1-carboxylate] | < 100
COc1ccccc1C(=O)n1nc(C2CCCN(C(=O)OC(C)(C)C)C2)cc1NCc1ccc(Cl)s1 (stereo not shown) [Entry 281, tert-butyl 3-(5-[(5-chlorothiophen-2-yl)methyl]amino-1-(2-methoxybenzoyl)-1H-pyrazol-3-yl)piperidine-1-carboxylate] | < 100
CC(C)(C)OC(=O)N1CCCC(c2cc(NCc3ccc(Cl)s3)n(C(=O)C(C)(C)CO)n2)C1 (stereo not shown) [Entry 283, tert-butyl 3-(5-[(5-chlorothiophen-2-yl)methyl]amino-1-(3-hydroxy-2,2-dimethylpropanoyl)-1H-pyrazol-3-yl)piperidine-1-carboxylate] | < 100
CC(C)(C)OC(=O)N1CCCC(C)(c2cc(NCc3ccc(Cl)s3)n(C(=O)C3(C)CCOCC3)n2)C1 (stereo not shown) [Entry 286, tert-butyl 3-(5-[(5-chlorothiophen-2-yl)methyl]amino-1-(4-methyloxane-4-carbonyl)-l H-pyrazol-3-yl)-3-methylpiperidine-1-carboxylate] | 100 to 1000
CC(C)(C)OC(=O)N1CCCC(c2cc(NCc3ccc(Cl)s3)n(C(=O)C3(C)CCOCC3)n2)C1 (stereo not shown) [Entry 287, tert-butyl 3-(5-[(5-chlorothiophen-2-yl)methyl]amino-1-(4-methyloxane-4-carbonyl)-1H-pyrazol-3-yl)piperidine-1-carboxylate] | < 100
CC(C)(C)OC(=O)N1CCCC(C)(c2cc(NCc3ccc(Cl)s3)n(C(=O)c3ccsc3)n2)C1 (stereo not shown) [Entry 288, tert-butyl 3-(5-[(5-chlorothiophen-2-yl)methyl]amino-1-(thiophene-3-carbonyl)-1H-pyrazol-3-yl)-3-methylpiperidine-1-carboxylate] | < 100
CC(C)(C)OC(=O)N1CCCC(c2cc(NCc3ccc(Cl)s3)n(C(=O)c3ccsc3)n2)C1 (stereo not shown) [Entry 289, tert-butyl 3-(5-[(5-chlorothiophen-2-yl)methyl]amino-1-(thiophene-3-carbonyl)-1H-pyrazol-3-yl)piperidine-1-carboxylate] | < 100
CC(C)(C)OC(=O)N1CCCC(c2cc(NCc3ccc(Cl)s3)[nH]n2)C1 (stereo not shown) [Entry 290, tert-butyl 3-(5-[(5-chlorothiophen-2-yl)methyl]amino-1H-pyrazol-3-yl)piperidine-1-carboxylate] | > 100000
CC(C)(C)OC(=O)N1CCC(c2cc(NCc3ccc(Cl)s3)n(C(=O)C(C)(C)C)n2)CC1 [Entry 292, tert-butyl 4-(5-[(5-chlorothiophen-2-yl)methyl]amino-1-(2,2-dimethylpropanoyl)-1H-pyrazol-3-yl)piperidine-1-carboxylate] | < 100
Cc1c(C2CCN(C(=O)OC(C)(C)C)CC2)nn(C(=O)C(C)(C)C)c1NCc1ccc(Cl)s1 [Entry 293, tert-butyl 4-(5-[(5-chlorothiophen-2-yl)methyl]amino-1-(2,2-dimethylpropanoyl)-4-methyl-1H-pyrazol-3-yl)piperidine-1-carboxylate] | 100 to 1000
COc1ccccc1C(=O)n1nc(C2CCN(C(=O)OC(C)(C)C)CC2)cc1NCc1ccc(Cl)s1 [Entry 295, tert-butyl 4-(5-[(5-chlorothiophen-2-yl)methyl]amino-1-(2-methoxybenzoyl)-1H-pyrazol-3-yl)piperidine-1-carboxylate] | < 100
CC(C)(C)OC(=O)N1CCC(c2cc(NCc3ccc(Cl)s3)n(C(=O)C(C)(C)CO)n2)CC1 [Entry 297, tert-butyl 4-(5-[(5-chlorothiophen-2-yl)methyl]amino-1-(3-hydroxy-2,2-dimethylpropanoyl)-1H-pyrazol-3-yl)piperidine-1-carboxylate] | < 100
CC(C)(C)OC(=O)N1CCC(C)(c2cc(NCc3ccc(Cl)s3)n(C(=O)C3(C)CCOCC3)n2)CC1 [Entry 299, tert-butyl 4-(5-[(5-chlorothiophen-2-yl)methyl]amino-1-(4-methyloxane-4-carbonyl)-1H-pyrazol-3-yl)-4-methylpiperidine-1-carboxylate] | < 100
CC(C)(C)OC(=O)N1CCC(c2cc(NCc3ccc(Cl)s3)n(C(=O)c3ccsc3)n2)CC1 [Entry 301, tert-butyl 4-(5-[(5-chlorothiophen-2-yl)methyl]amino-1-(thiophene-3-carbonyl)-1H-pyrazol-3-yl)piperidine-1-carboxylate] | < 100
CC(C)(C)OC(=O)N1CCC(c2cc(NCc3ccc(Cl)s3)[nH]n2)CC1 [Entry 302, tert-butyl 4-(5-[(5-chlorothiophen-2-yl)methyl]amino-1H-pyrazol-3-yl)piperidine-1-carboxylate] | > 100000
Cc1c(C2CCN(C(=O)OC(C)(C)C)CC2)n[nH]c1NCc1ccc(Cl)s1 [Entry 303, tert-butyl 4-(5-[(5-chlorothiophen-2-yl)methyl]amino-4-methyl-1H-pyrazol-3-yl)piperidine-1-carboxylate] | > 100000

Second part, the molecule after the results:

IC50 [nM] | SMILES
100 to 1000 | CC(C)(C)OC(=O)N1CCCC1(C)c1cc(NCc2ccc(Cl)s2)n(C(=O)C(C)(C)CO)n1 (stereo not shown) [Entry 274, tert-butyl 2-(5-[(5-chlorothiophen-2-yl)methyl]amino-1-(3-hydroxy-2,2-dimethylpropanoyl)-1H-pyrazol-3-yl)-2-methylpyrrolidine-1-carboxylate]
< 100 | CC(C)(C)OC(=O)N1CCCC(C)(c2cc(NCc3ccc(Cl)s3)n(C(=O)C(C)(C)C)n2)C1 (stereo not shown) [Entry 278, tert-butyl 3-(5-[(5-chlorothiophen-2-yl)methyl]amino-1-(2,2-dimethylpropanoyl)-1H-pyrazol-3-yl)-3-methylpiperidine-1-carboxylate]
< 100 | CC(C)(C)OC(=O)N1CCCC(C)(c2cc(NCc3ccc(Cl)s3)n(C(=O)C(C)(C)CO)n2)C1 (stereo not shown) [Entry 282, tert-butyl 3-(5-[(5-chlorothiophen-2-yl)methyl]amino-1-(3-hydroxy-2,2-dimethylpropanoyl)-1H-pyrazol-3-yl)-3-methylpiperidine-1-carboxylate]
100 to 1000 | COCC(C)(C)C(=O)n1nc(C2(C)CCCN(C(=O)OC(C)(C)C)C2)cc1NCc1ccc(Cl)s1 (stereo not shown) [Entry 284, tert-butyl 3-(5-[(5-chlorothiophen-2-yl)methyl]amino-1-(3-methoxy-2,2-dimethylpropanoyl)-1H-pyrazol-3-yl)-3-methylpiperidine-1-carboxylate]
< 100 | COCC(C)(C)C(=O)n1nc(C2CCCN(C(=O)OC(C)(C)C)C2)cc1NCc1ccc(Cl)s1 (stereo not shown) [Entry 285, tert-butyl 3-(5-[(5-chlorothiophen-2-yl)methyl]amino-1-(3-methoxy-2,2-dimethylpropanoyl)-1H-pyrazol-3-yl)piperidine-1-carboxylate]
< 100 | CC(C)(C)OC(=O)N1CCC(C)(c2cc(NCc3ccc(Cl)s3)n(C(=O)C(C)(C)C)n2)CC1 [Entry 291, tert-butyl 4-(5-[(5-chlorothiophen-2-yl)methyl]amino-1-(2,2-dimethylpropanoyl)-1H-pyrazol-3-yl)-4-methylpiperidine-1-carboxylate]
< 100 | COc1ccccc1C(=O)n1nc(C2(C)CCN(C(=O)OC(C)(C)C)CC2)cc1NCc1ccc(Cl)s1 [Entry 294, tert-butyl 4-(5-[(5-chlorothiophen-2-yl)methyl]amino-1-(2-methoxybenzoyl)-1H-pyrazol-3-yl)-4-methylpiperidine-1-carboxylate]
< 100 | CC(C)(C)OC(=O)N1CCC(C)(c2cc(NCc3ccc(Cl)s3)n(C(=O)C(C)(C)CO)n2)CC1 [Entry 296, tert-butyl 4-(5-[(5-chlorothiophen-2-yl)methyl]amino-1-(3-hydroxy-2,2-dimethylpropanoyl)-1H-pyrazol-3-yl)-4-methylpiperidine-1-carboxylate]
< 100 | COCC(C)(C)C(=O)n1nc(C2(C)CCN(C(=O)OC(C)(C)C)CC2)cc1NCc1ccc(Cl)s1 [Entry 298, tert-butyl 4-(5-[(5-chlorothiophen-2-yl)methyl]amino-1-(3-methoxy-2,2-dimethylpropanoyl)-1H-pyrazol-3-yl)-4-methylpiperidine-1-carboxylate]
< 100 | CC(C)(C)OC(=O)N1CCC(C)(c2cc(NCc3ccc(Cl)s3)n(C(=O)c3ccsc3)n2)CC1 [Entry 300, tert-butyl 4-(5-[(5-chlorothiophen-2-yl)methyl]amino-1-(thiophene-3-carbonyl)-1H-pyrazol-3-yl)-4-methylpiperidine-1-carboxylate]
